Data reported in ChEMBL document CHEMBL1201862, “PubChem BioAssay data set” (2004).
Activity calls are given as the source filed them.

Key:
X-box-binding protein 1 = biological target: T1, X-box-binding protein 1 (Homo sapiens, UniProt P17861); type: functional, Cricetulus griseus;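 also: confirmatory dose-response counter-screen serving a CHOP assay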
T1 sequence (P17861 whole entry): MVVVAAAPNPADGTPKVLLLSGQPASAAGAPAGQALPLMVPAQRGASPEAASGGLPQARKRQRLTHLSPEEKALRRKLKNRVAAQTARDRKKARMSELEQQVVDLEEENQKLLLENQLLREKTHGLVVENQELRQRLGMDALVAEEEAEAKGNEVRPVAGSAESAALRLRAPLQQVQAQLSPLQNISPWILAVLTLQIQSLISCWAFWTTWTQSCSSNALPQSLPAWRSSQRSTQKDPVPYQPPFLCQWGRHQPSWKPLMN

[1] = viability of HCT116 lacking mutant beta-catenin – cell-based, human colon tumor, dose response (AID 1045); type: functional;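 also: HCT116 colon tumor cells with beta catenin knocked out; cells exposed to compound for 60 hours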
[2] = viability of PTEN-deleted HCT116 cells – cell-based, HCT116 PTEN knockout, dose response (AID 1047); type: functional;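 also: HCT116 colon tumor cells with PTEN knocked out; cells exposed to compound for 60 hours before readout; potency for loss of cell viability measured by luminescence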
[3] = Luminescence Cell-Based Dose Retest to Confirm Inhibitors of Cancer Stem Cells. [Related pubchem assays (depositor defined):AID2717, AID2721]; type: functional; settings: Homo sapiens
[4] = reduction of Shn3 3'UTR-driven luciferase in osteoblasts – cell-based, Clone20 osteoblasts, firefly luciferase, cherry-picked, dose response (AID 624132); type: functional;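 also: firefly luciferase luminescence from reporter carrying the Shn3 3'UTR in osteoblasts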
[5] = loss of viability in HepG2 cells – cell-based, CellTiter-Glo, cherry-picked, cytotoxicity control for Shn3 inhibitor project, dose response (AID 624134); type: functional
[6] = biological target: T2, Microphthalmia-associated transcription factor (Homo sapiens, UniProt O75030); test: reducers of TRPM1 reporter luminescence, concentration series – cell-based, SK-MEL-5, cherry-picked, set 3, MITF inhibitor project, dose response (AID 493073); type: functional;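 also: SK-MEL-5 melanoma cells with luciferase driven by the MITF target TRPM1 promoter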
T2 sequence (O75030 whole entry): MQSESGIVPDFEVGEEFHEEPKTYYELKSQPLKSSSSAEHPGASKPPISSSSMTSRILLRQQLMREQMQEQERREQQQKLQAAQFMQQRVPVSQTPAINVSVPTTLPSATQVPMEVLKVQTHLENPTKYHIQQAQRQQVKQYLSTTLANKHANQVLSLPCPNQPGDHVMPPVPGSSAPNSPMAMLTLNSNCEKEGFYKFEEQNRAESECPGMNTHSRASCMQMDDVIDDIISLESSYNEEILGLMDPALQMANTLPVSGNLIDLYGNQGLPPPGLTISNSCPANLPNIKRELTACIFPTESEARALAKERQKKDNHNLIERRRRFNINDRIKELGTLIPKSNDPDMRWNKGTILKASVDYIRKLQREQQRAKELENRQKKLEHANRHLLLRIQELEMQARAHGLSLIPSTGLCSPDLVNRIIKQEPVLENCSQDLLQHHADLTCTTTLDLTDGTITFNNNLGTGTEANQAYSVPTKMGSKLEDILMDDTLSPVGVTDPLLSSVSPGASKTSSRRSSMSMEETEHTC

[7] = non-specific 3'UTR reporter inhibition in Clone20-Shn3RL – cell-based, Renilla luciferase, cherry-picked, counter-screen for Shn3 inhibitor project, dose response (AID 624133); type: functional
Insulin-degrading enzyme = biological target: T3, Insulin-degrading enzyme (Homo sapiens, UniProt P14735); test: Dose Response: Fluorescence polarization-based cell-based high throughput dose response assay for inhibitors of insulin-degrading enzyme (IDE). [Related pubchem assays: 434962 (Primary screen (IDE inhibitors in singlicate)), 449730 (Counterscreen (Cytotoxicity in triplicate)), 435028 (Confirmation (IDE inhibitors in triplicate)), 434984 (Summary …; type: functional
T3 sequence (P14735 whole entry): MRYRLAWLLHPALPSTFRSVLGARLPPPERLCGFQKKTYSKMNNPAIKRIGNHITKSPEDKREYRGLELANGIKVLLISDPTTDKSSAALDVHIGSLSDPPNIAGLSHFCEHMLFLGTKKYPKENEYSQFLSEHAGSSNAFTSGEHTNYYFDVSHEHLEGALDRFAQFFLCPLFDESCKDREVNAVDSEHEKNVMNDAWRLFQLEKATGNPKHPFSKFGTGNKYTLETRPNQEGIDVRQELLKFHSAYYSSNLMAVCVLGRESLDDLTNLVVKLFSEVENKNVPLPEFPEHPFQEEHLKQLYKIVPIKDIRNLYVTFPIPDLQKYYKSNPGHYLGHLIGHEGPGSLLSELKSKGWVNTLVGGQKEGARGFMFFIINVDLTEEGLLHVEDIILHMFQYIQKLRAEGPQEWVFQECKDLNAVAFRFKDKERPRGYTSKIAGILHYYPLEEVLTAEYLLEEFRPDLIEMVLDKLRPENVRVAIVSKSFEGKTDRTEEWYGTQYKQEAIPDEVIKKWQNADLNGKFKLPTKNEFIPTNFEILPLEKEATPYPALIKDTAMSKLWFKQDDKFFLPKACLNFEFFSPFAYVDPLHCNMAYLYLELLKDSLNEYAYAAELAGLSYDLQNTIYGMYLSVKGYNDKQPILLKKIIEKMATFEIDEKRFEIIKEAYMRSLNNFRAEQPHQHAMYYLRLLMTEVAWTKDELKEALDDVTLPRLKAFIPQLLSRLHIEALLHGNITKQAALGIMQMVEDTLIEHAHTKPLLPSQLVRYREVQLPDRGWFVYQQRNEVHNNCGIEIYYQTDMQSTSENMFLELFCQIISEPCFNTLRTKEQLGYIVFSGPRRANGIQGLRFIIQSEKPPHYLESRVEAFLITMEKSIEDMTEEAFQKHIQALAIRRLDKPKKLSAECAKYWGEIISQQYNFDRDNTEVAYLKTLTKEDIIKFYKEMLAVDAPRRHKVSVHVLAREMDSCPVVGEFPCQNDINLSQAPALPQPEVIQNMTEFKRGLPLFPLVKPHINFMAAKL

[8] = Counterscreen for IDE inhibitors: Luminescence-based cell-based high throughput dose response assay to identify compounds that are cytotoxic to HEK cells. [Related pubchem assays: 434962 (Primary screen (IDE inhibitors in singlicate)), 449730 (Counterscreen (Cytotoxicity in triplicate)), 435028 (Confirmation (IDE inhibitors in triplicate)) …; type: functional; settings: HEK293
cells [9] = type: functional, cell-based
cells [10] = type: functional, cell-based; remark: listed apart in the source
[11] = biological target: T4, Short transient receptor potential channel 4 (Mus musculus, UniProt Q9QUQ5); test: calcium entry via TRPC4 opening agents – cell-based, HEK293 TRPC4/mu-opioid, Fluo-4 calcium, dose response (AID 434937); type: functional
T4 sequence (Q9QUQ5 whole entry): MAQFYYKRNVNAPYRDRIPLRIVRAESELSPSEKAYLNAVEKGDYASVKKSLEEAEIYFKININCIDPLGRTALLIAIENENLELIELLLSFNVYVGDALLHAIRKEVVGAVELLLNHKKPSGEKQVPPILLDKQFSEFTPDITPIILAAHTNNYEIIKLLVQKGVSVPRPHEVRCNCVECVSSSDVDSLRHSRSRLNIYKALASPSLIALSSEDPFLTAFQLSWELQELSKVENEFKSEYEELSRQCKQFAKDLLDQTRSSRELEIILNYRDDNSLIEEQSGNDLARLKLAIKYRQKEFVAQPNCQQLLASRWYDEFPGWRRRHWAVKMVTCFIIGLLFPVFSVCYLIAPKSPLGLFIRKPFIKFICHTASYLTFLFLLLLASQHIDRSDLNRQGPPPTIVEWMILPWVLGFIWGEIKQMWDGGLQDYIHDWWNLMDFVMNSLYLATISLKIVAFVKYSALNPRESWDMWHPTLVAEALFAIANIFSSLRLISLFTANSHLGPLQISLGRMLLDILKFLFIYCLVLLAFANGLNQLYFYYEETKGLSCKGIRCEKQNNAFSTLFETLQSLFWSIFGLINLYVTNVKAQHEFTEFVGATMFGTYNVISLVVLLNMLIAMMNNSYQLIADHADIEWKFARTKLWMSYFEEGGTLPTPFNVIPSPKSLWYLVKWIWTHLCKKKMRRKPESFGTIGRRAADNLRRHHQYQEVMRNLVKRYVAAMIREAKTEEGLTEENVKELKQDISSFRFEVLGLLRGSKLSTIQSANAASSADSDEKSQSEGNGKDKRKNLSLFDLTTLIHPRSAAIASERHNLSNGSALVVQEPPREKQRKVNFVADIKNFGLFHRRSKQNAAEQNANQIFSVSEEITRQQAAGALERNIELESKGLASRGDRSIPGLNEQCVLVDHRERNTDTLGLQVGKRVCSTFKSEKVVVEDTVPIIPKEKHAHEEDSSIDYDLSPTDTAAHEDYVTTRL

SUMO-activating enzyme = SUMO-activating enzyme (Homo sapiens, UniProt Q9UBT2); test: blockers of UBC9-mediated SUMO conjugation – biochemical, AlphaScreen, SUMOylation inhibitor project, confirmation (AID 2018); type: functional
Chain of SUMO-activating enzyme (Q9UBE0 whole entry): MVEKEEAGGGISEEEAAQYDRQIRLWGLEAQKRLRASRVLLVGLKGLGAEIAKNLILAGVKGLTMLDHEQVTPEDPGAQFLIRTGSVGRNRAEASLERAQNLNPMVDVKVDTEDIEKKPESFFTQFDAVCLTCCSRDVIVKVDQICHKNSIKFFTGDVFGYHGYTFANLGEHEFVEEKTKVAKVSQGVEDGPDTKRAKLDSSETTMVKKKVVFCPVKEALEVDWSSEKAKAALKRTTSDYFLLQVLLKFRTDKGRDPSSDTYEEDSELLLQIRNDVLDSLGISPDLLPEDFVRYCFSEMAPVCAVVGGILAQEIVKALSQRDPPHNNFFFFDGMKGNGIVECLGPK
Chain of SUMO-activating enzyme (Q9UBT2 whole entry): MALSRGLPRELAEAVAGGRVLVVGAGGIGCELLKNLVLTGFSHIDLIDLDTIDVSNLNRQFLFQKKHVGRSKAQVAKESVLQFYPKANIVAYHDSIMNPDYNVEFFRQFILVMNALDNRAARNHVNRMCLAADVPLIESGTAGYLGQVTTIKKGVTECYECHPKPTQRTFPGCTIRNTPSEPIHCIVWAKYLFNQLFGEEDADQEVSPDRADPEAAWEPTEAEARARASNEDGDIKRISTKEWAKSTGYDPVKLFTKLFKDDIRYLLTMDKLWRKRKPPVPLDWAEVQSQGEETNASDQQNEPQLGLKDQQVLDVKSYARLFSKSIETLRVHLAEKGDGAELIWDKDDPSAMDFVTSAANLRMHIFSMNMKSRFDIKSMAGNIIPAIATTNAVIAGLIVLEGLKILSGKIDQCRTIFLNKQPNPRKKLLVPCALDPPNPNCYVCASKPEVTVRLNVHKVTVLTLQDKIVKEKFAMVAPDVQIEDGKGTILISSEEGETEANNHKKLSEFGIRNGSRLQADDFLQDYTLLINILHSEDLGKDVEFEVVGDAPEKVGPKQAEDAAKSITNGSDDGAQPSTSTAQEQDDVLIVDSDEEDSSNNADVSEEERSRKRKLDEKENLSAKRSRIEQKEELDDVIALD

For `CC(=O)OCCCNc1cc(Sc2ccc(Cl)cc2)c2nonc2c1[N+](=O)[O-]`, the “Absolute IC50 (XBP1)” value (X-box-binding protein 1) was 10 µM, the EC50 [1] was 11.3 µM (active) and the EC50 [2] was 13.1 µM (active). For the same compound, the AC50 [3] was 4.57 µM (active), the AC50 [4] was 1.14 µM (active) and the AC50 [5] was 43.7 µM (active). For the same compound, the AC50 [6] was 10.9 µM (active) and the AC50 [7] was 7.64 µM (active).

For `Cc1ccc(C(C(=O)NC2CCCCC2)N(C(=O)Cc2c[nH]c3ccccc23)c2ccccc2C)o1` (stereo unspecified), the “Absolute IC50 (XBP1)” value (X-box-binding protein 1) was 10 µM.

For `COc1cc(/C=C2\SC(=S)N(NC(C)=O)C2=O)ccc1OC(=O)c1ccco1`, the IC50 (Insulin-degrading enzyme) was 5.78 µM (active) and the IC50 [8] was > 55.7 µM (not active).

With `O=C(C1CCCN(Cc2ccccc2F)C1)N1CCc2ccccc2C1` (stereo unspecified) the EC50 (cells [9]) was > 350 µM (not active), the EC50 (cells [10]) was > 350 µM (not active) and the EC50 [11] was 0.299 µM (active).

With `N#C/C(=C(/O)c1ccc(S(=O)(=O)N(CCCl)CCCl)cc1)c1nc2ccccc2[nH]1` the IC50 (SUMO-activating enzyme) was 73.8 µM (active).

For `CNCC(=O)N1CCN(c2ncc(C(F)(F)F)cc2Cl)CC1`, the EC50 [11] was 0.105 µM (active).
